According to US6518399B1, “Receptor” (Smithkline Beecham Corporation, priority 1998, dated 2003):

B2: GABAB-R2 C-terminal domain, GAL4 fusion (receptor, not shown: small tags and cut ends)
chain: VPKLITLRTNPDAATQNRRFQFTQNQKKEDSKTSTSVTSVNQASTSRLEGLQSENHRLRMKITELDKDLEEVTMQLQDTPEKTTYIKQNHYQELNDILNLGNFTESTDGGKAILKNHLDQNPQLQWNTTEPSRTCKDPIEDINSPEHIQRRLSLQLPILHHAYLPSIGGVDASCVSPCVSPTASPRHRHVPPSFRVMVSGL
notes: Only the intracellular C-terminal domain of GABAB-R2 was used; also called GABAB-R2 C-terminus; YTH HITS

Assays:
[1] = test system: GABAB-R1a, GABAB-R1b or GABAB-R2 receptors expressed alone; type: cell-based, human; details: for Functional response, CFTR or GIRK1/4 current: GABAB-R1a, GABAB-R1b or GABAB-R2 expressed singly with CFTR or GIRK1/4
Method: Adult female Xenopus laevis (Blades Biologicals) were anaesthetised using 0.2% tricaine (3-aminobenzoic acid ethyl ester), killed and the ovaries rapidly removed. […] Single stage V and VI oocytes were transferred to ND96 solution (96 mM NaCl, 2 mM KCl, 1 mM MgCl2, 1.8 mM CaCl2, 5 mM HEPES; pH 7.5 at 25° C.) which contained 50 μg ml^−1 gentamycin and stored at 18° C.
GABAB-R1a, GABAB-R1b (both in pcDNA3.1rev, Invitrogen), GABAB-R2, GIRK1, GIRK4 (in pcDNA3) and cystic fibrosis transmembrane regulator (CFTR; in pBluescript, Stratagene) were linearised and transcribed to RNA using T7 or T3 polymerase (Promega Wizard kit). m′G(5′)pp(5′)GTP capped cRNA was injected into oocytes (20-50 nl of 1 μgμl^−1 RNA per oocyte) and whole-cell currents were recorded using two-microelectrode voltage-clamp (Geneclamp amplifier, Axon instruments Inc.) 3 to 7 days post-RNA injection. […] In all experiments oocytes were voltage-clamped at a holding potential of −60 mV in ND96 solution (superfused at 2 ml per min.) and agonists were applied by addition to this extracellular solution. In GIRK experiments the extracellular solution was changed to a high potassium solution prior to agonist application, to facilitate the recording of inward potassium currents. Current-voltage curves were constructed by applying 200 ms voltage-clamp pulses from the holding potential of […] to test potentials between −100 mV and +50 mV.

HA-GABAB-R2 = target: T1, HA-GABAB-R2 (Homo sapiens, UniProt O75899); test: [3H]-CGP54626 binding, HEK293T cells transfected with HA-GABAB-R2 alone; details: HA-GABAB-R2 alone (data not shown)
T1 construct: heterodimerisation between full-length expressed GABAB-R1 and GABAB-R2 in mammalian cells; expressed in transfected cells; host or cells: HEK293T
T1 sequence (O75899 42-941): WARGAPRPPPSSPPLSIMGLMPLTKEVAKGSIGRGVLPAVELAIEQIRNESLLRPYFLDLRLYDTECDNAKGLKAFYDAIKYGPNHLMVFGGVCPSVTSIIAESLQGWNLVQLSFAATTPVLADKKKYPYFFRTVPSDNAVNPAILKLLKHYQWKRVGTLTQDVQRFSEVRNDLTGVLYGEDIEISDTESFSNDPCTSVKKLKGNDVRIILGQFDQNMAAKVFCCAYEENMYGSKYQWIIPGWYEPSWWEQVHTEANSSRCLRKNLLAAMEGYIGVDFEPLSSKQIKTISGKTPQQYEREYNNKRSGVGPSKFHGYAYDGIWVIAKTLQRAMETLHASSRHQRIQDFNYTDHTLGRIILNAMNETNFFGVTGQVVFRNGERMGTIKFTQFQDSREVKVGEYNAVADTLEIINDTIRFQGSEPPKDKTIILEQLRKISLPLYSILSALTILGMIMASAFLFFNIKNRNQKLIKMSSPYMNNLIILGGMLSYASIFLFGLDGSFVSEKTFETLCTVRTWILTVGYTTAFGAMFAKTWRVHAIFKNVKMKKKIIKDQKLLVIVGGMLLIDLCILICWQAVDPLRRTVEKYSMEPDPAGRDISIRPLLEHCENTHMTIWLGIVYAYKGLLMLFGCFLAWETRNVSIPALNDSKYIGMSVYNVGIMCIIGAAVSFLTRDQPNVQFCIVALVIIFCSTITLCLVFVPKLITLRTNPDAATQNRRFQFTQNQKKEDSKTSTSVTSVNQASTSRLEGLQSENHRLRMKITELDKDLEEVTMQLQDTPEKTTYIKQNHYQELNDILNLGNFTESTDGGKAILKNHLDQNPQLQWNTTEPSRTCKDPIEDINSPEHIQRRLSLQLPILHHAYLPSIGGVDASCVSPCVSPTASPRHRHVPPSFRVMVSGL
From the text: […]. […] […]

HA-GABAB-R1b = HA-GABAB-R1b (Homo sapiens, UniProt Q9UBS5); test: [3H]-CGP54626 binding, HEK293T membranes expressing HA-GABAB-R1b alone; details: HA-GABAB-R1b expressed alone
Chain of HA-GABAB-R1b (Q9UBS5 30-844 isoform Q9UBS5-2 limits assumed): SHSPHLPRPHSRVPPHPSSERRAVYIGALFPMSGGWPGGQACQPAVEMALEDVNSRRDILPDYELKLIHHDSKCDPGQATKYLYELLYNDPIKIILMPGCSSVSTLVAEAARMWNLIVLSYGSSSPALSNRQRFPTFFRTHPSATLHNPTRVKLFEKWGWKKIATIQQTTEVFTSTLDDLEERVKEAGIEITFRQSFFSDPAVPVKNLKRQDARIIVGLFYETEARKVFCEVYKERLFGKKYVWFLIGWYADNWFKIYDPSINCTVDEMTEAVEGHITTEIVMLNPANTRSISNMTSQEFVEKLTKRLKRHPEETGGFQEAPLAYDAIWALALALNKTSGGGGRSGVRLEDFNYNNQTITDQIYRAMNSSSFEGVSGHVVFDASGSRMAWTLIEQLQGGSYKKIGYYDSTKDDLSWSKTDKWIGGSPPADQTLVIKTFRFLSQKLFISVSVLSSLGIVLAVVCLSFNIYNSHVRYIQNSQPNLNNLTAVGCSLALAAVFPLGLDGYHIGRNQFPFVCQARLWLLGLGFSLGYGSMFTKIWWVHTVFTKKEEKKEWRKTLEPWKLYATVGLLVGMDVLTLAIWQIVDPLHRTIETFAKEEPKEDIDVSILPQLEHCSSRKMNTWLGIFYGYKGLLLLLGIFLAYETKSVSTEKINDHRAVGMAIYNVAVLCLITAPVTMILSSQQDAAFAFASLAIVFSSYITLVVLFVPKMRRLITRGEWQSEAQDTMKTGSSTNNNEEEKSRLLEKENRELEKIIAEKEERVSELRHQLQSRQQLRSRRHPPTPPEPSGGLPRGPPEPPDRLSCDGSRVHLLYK
Method: Competition binding assays were performed in 50 mM Tris HCl buffer (pH7.4) containing 40 μM isoguvacine (Tocris Cookson) to block rat brain GABAA binding sites. P2 membrane preparations were made from HEK293T cells transfected using conditions described above. […] Assay conditions were 0.4-0.6 nM [^3H]-CGP54626, incubated with 50 μg/tube crude rat brain ‘mitochondrial’ fractions or 25 μg/tube HEK293T P2 membranes at room temperature for 20 minutes.

[2] = target: B2; test: yeast two hybrid, direct test of the C-termini (β-galactosidase, FIG. 5); GABAB-R2 C-terminal domain also recovered 33 times in the library screen with the GABAB-R1 bait
[3] = target: the molecule itself; test: yeast two hybrid, GAL4BD and GAL4AD fusions of the C-termini (FIG. 5); the library screen also did not retrieve the GABAB-R1 C-terminal domain
[4] = target: the molecule itself; test: yeast two hybrid, GAL4BD and GAL4AD fusions of the C-termini (FIG. 5)

**Q.** How did the “Functional response, CFTR or GIRK1/4 current” value [1] turn out when `NCC(CC(=O)O)c1ccc(Cl)cc1` (centres unmarked) [Baclofen] was run?
**A.** The value was “No functional responses”.

**Q.** Which “Functional response, GIRK1/4 current” value ([1]; GABAB-R1a and GABAB-R1b expressed alone (data not shown)) does the source give for `NCCCC(=O)O` [GABA, γ-amino-butyric acid] here?
**A.** The value was “gave no response to GABA”.

**Q.** What about the “Functional response, CFTR or GIRK1/4 current” value [1] of the same molecule?
**A.** Its value is “No functional responses”.

**Q.** How did the “Specific binding of radioligand” value (HA-GABAB-R2) turn out when `C[C@H](NC[C@H](O)CP(=O)(O)CC1CCCCC1)c1ccc(Cl)c(Cl)c1` [[3H]-CGP54626] was run?
**A.** The value was “unable to detect any [3H]-CGP54626 specific binding”.

**Q.** What about the “Specific binding of radioligand” value (HA-GABAB-R1b) of the same molecule?
**A.** The value was “high levels of specific binding”.

B1: GABAB-R1 C-terminal domain (C-terminal 108 amino acids of GABAB-R1), GAL4 fusion (receptor, not shown: small tags and cut ends)
chain: VPKMRRLITRGEWQSEAQDTMKTGSSTNNNEEEKSRLLEKENRELEKIIAEKEERVSELRHQLQSRQQLRSRRHPPTPPEPSGGLPRGPPEPPDRLSCDGSRVHLLYK
notes: Used as GAL4BD fusion in the library screen and as both GAL4BD and GAL4AD fusions in the direct test (all combinations); also called GABAB-R1 C-terminus; GAL4BD-GABAB-R1 C-terminus
**Q.** Which results are given for B1?
**A.** binding result [2]: binds; binding result [3]: no binding

**Q.** Does B2 bind [4]?
**A.** Result: no binding
